Results on 7 molecules are retold here after US20260201008A1, “SECRETIN-DERIVED GLP1R SELECTIVE AGONISTS” (GUBRA A/S, priority 2023, published 2026).

The target of one data set is SCTR (Homo sapiens, UniProt P47872). Kind of data set: hSCTR potency, cAMP accumulation in CHO-K1 cells stably overexpressing hSCTR. Type of data set: cell-based. Set-up: alternatively Euroscreen ES-712-AF; FAST-0161L; host or cells: CHO-K1. Particulars: cAMP accumulation, CHO-K1 cells overexpressing hSCTR. The procedure, abridged: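 Division-arrested CHO-K1 cells stably expressing hSCTR were plated in DPBS with 0.05% casein and 0.5 mM IBMX, then stimulated with test peptide for 30 min at room temperature. cAMP was read by HTRF after one hour. EC50 came from variable-slope sigmoidal nonlinear regression.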
A general note: Cyclic AMP is a second messenger, typically raised through Gs and lowered through Gi signalling.

The next data set has as its target GLP1R (Homo sapiens, UniProt P43220). Kind of data set: hGLP1R potency, cAMP accumulation in CHO-K1 cells stably overexpressing hGLP1R. Particulars: for Selectivity: SCTR EC50/GLP1R EC50 ratio; for EC50: cAMP accumulation, CHO-K1 cells overexpressing hGLP1R; for SCTR EC50/GLP1R EC50 ratio: selectivity for hGLP1R over hSCTR, cAMP accumulation in CHO-K1 cells. Also on record: host or cells: CHO-K1. Type of data set: cell-based. The procedure, abridged:
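Cells were plated in DPBS with 0.05% casein and 0.5 mM IBMX, then stimulated for 30 min at room temperature with test compound. cAMP was read by TR-FRET after one hour. EC50 came from variable-slope sigmoid nonlinear regression; purified peptides ran as 11-point 3-fold series, n=2.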

Data set [1] can be described thus: Fibril formation of crude library peptides (Thioflavin T). Type of data set: physicochemical. Set-up: key: average ThT fluorescence emission at 480 nm (ex 450 nm), raw units. The note with it: Physical stability of peptides. The procedure, abridged: (§1)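 Values reflect mean ThT emission (ex 450, em 480 nm) over 72 h at 40° C, read every 10 min after 5 min shaking at 700 rpm, plus a single initial absorbance at 600 nm for turbidity. Peptides were at 267 μM, pH 4.0 acetate or pH 7.0 phosphate (50 mM), with 4 μM ThT.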

Data set [2] in a line: Turbidity of crude library peptides (absorbance at 600 nm). Particulars: Physical stability of peptides. Type of data set: physicochemical. The procedure, abridged: as §1
The mark [3] stands for this setting: read-out: pEC50 hSCTR (converted).
[4] abbreviates: read-out: pEC50 hGLPR1 (converted).
Where [5] appears, read: read-out: hSCTR pEC50 (converted).
[6] abbreviates: read-out: hGLP1R pEC50 (converted).

The structures appear in SMILES notation. Where two headings read alike, the source gives them in different places. Numbered stars: 1 amine (or outer) side, 2 acyl side, 3 side chain; on linkers, the order of the positions; unused ones are H or OH. Square brackets hold non-standard residues; d marks the D form. Side chains are listed from the residue outwards. Peptide text beside a SMILES is read from it. * marks the point of attachment. C20 diacid = O=C(O)CCCCCCCCCCCCCCCCCCC(=O)*; γGlu = O=C(O)[C@H](CCC(=O)[*:2])N[*:1]; AEEA = NCCOCCOCC(=O)O; Aib = CC(C)(N)C(=O)O

SCTR, sequence (P47872 23-440): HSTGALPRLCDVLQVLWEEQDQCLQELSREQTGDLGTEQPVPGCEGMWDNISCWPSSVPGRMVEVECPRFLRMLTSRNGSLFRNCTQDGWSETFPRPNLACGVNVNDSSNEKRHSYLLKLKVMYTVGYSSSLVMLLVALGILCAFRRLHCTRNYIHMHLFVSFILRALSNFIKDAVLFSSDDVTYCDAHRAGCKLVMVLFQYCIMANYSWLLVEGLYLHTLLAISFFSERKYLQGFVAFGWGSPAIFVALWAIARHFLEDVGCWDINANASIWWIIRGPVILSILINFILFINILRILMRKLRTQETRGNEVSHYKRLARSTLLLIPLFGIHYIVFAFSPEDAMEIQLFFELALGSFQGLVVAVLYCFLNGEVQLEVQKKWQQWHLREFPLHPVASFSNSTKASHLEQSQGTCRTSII
GLP1R, sequence (P43220 24-463): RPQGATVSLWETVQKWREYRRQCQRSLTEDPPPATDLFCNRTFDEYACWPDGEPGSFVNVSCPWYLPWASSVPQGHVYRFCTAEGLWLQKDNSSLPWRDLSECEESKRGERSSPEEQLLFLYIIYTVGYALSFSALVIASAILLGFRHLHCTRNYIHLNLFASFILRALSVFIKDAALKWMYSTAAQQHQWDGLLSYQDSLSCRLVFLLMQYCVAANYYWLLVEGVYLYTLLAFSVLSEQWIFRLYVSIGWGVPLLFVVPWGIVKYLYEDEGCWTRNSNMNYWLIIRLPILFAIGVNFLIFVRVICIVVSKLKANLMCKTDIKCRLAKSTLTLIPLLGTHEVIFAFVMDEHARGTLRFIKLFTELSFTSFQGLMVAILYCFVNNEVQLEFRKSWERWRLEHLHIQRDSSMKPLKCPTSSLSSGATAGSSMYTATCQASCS

In the case of `CC(C)C[C@H](NC(=O)[C@H](Cc1ccccc1)NC(=O)[C@H](CCCNC(=N)N)NC(=O)[C@H](CCC(N)=O)NC(=O)[C@H](CCC(=O)O)NC(=O)[C@H](C)NC(=O)[C@H](C)NC(=O)[C@@H](NC(=O)[C@H](CCC(=O)O)NC(=O)[C@H](CCCCNC(=O)COCCOCCNC(=O)COCCOCCNC(=O)CC[C@H](NC(=O)CCCCCCCCCCCCCCCCCCC(=O)O)C(=O)O)NC(=O)[C@H](CC(C)C)NC(=O)[C@H](CCCNC(=N)N)NC(=O)[C@H](CO)NC(=O)[C@@H](NC(=O)[C@H](CC(=O)O)NC(=O)[C@H](CO)NC(=O)[C@@H](NC(=O)[C@H](Cc1ccccc1)NC(=O)[C@@H](NC(=O)CNC(=O)[C@H](CCC(=O)O)NC(=O)C(C)(C)NC(=O)[C@@H](N)Cc1c[nH]cn1)[C@@H](C)O)[C@@H](C)O)C(C)C)[C@@H](C)O)C(=O)N[C@@H](CCC(=O)O)C(=O)N[C@@H](Cc1c[nH]cn1)C(=O)N[C@@H](CC(C)C)C(=O)N[C@H](C(N)=O)C(C)C` [compound 34] (H-H[Aib]EGTFTSDVSRLK([AEEA-AEEA-γGlu-C20 diacid])ETAAEQRFLEHLV-NH2), the figures for the EC50 at SCTR (setting [3]) and on GLP1R (setting [4]) were 398 nM and 0.0251 nM, respectively. Also, on GLP1R, the Selectivity stood at 18582. Also, the Fibril formation in data set [1] was 11365. Moreover, in data set [2], the “Turbidity (pH 7)” value came to 0.08.
Turning to `CC(C)C[C@H](NC(=O)[C@H](Cc1ccccc1)NC(=O)[C@H](CCCNC(=N)N)NC(=O)[C@H](CCC(N)=O)NC(=O)C(C)(C)NC(=O)[C@H](C)NC(=O)[C@H](C)NC(=O)[C@H](CCC(=O)O)NC(=O)[C@H](CCC(=O)O)NC(=O)[C@H](CCCCNC(=O)COCCOCCNC(=O)COCCOCCNC(=O)CC[C@H](NC(=O)CCCCCCCCCCCCCCCCCCC(=O)O)C(=O)O)NC(=O)[C@H](CC(C)C)NC(=O)[C@@H](NC(=O)[C@H](CO)NC(=O)[C@@H](NC(=O)[C@H](CC(=O)O)NC(=O)[C@H](CO)NC(=O)[C@@H](NC(=O)[C@H](Cc1ccccc1)NC(=O)[C@@H](NC(=O)CNC(=O)[C@H](CCC(=O)O)NC(=O)C(C)(C)NC(=O)[C@@H](N)Cc1c[nH]cn1)[C@@H](C)O)[C@@H](C)O)C(C)C)[C@@H](C)O)C(=O)N[C@@H](CCC(=O)O)C(=O)N[C@@H](Cc1c[nH]cn1)C(=O)N[C@@H](CC(C)C)C(=O)N[C@H](C(N)=O)C(C)C` [compound 77] (H-H[Aib]EGTFTSDVSTLK([AEEA-AEEA-γGlu-C20 diacid])EEAA[Aib]QRFLEHLV-NH2), the results for the EC50 at SCTR (setting [3]) and on GLP1R (setting [4]) were 1580 nM and 0.02 nM, respectively. For the same molecule, at GLP1R, the Selectivity is on record as 74783. Moreover, the Fibril formation in data set [1] turned out to be 11936. Further, the “Turbidity (pH 7)” value in data set [2] came out at 0.08.
Turning to `CC(C)C[C@H](NC(=O)[C@H](Cc1ccccc1)NC(=O)[C@H](CCCNC(=N)N)NC(=O)[C@H](CCC(N)=O)NC(=O)[C@H](C)NC(=O)[C@H](C)NC(=O)[C@H](C)NC(=O)[C@@H](NC(=O)[C@H](CCC(=O)O)NC(=O)[C@H](CCCCNC(=O)COCCOCCNC(=O)COCCOCCNC(=O)CC[C@H](NC(=O)CCCCCCCCCCCCCCCCCCC(=O)O)C(=O)O)NC(=O)[C@H](CC(C)C)NC(=O)[C@H](CCCNC(=N)N)NC(=O)[C@H](CO)NC(=O)[C@@H](NC(=O)[C@H](CC(=O)O)NC(=O)[C@H](CO)NC(=O)[C@@H](NC(=O)[C@H](Cc1ccccc1)NC(=O)[C@@H](NC(=O)CNC(=O)[C@H](CCC(=O)O)NC(=O)C(C)(C)NC(=O)[C@@H](N)Cc1c[nH]cn1)[C@@H](C)O)[C@@H](C)O)C(C)C)[C@@H](C)O)C(=O)N[C@@H](CCC(=O)O)C(=O)N[C@@H](Cc1c[nH]cn1)C(=O)N[C@@H](CC(C)C)C(=O)N[C@H](C(N)=O)C(C)C` [compound 23] (H-H[Aib]EGTFTSDVSRLK([AEEA-AEEA-γGlu-C20 diacid])ETAAAQRFLEHLV-NH2), the values for the EC50 at SCTR (setting [3]) and at GLP1R (setting [4]) were 158 nM and 0.02 nM, respectively. For the same molecule, the Selectivity at GLP1R is given as 8143. The molecule further registered a Fibril formation in data set [1] of 7462. Moreover, the “Turbidity (pH 7)” value in data set [2] is 0.08.
For `CC(C)C[C@H](NC(=O)[C@H](CCC(=O)O)NC(=O)[C@H](CCCCNC(=O)COCCOCCNC(=O)COCCOCCNC(=O)CC[C@H](NC(=O)CCCCCCCCCCCCCCCCCCC(=O)O)C(=O)O)NC(=O)[C@H](CC(C)C)NC(=O)[C@@H](NC(=O)[C@H](CO)NC(=O)[C@@H](NC(=O)[C@H](CC(=O)O)NC(=O)[C@H](CO)NC(=O)[C@@H](NC(=O)[C@H](Cc1ccccc1)NC(=O)[C@@H](NC(=O)CNC(=O)[C@H](CCC(=O)O)NC(=O)C(C)(C)NC(=O)[C@@H](N)Cc1c[nH]cn1)[C@@H](C)O)[C@@H](C)O)C(C)C)[C@@H](C)O)C(=O)N[C@@H](C)C(=O)N[C@@H](C)C(=O)NC(C)(C)C(=O)N[C@@H](CCC(N)=O)C(=O)N[C@@H](CCCNC(=N)N)C(=O)N[C@@H](Cc1ccccc1)C(=O)N[C@@H](CC(C)C)C(=O)N[C@@H](CCC(=O)O)C(=O)N[C@@H](Cc1c[nH]cn1)C(=O)N[C@@H](CC(C)C)C(=O)N[C@H](C(N)=O)C(C)C` [compound 79] (H-H[Aib]EGTFTSDVSTLK([AEEA-AEEA-γGlu-C20 diacid])ELAA[Aib]QRFLEHLV-NH2), in that order: 3160 nM, 0.1 nM, 30234, 12190 and 0.08.
`CC(C)C[C@H](NC(=O)CNC(=O)[C@H](CO)NC(=O)[C@@H](NC(=O)[C@H](CC(=O)O)NC(=O)[C@H](CO)NC(=O)[C@@H](NC(=O)[C@H](Cc1ccccc1)NC(=O)[C@@H](NC(=O)CNC(=O)[C@H](CCC(=O)O)NC(=O)C(C)(C)NC(=O)[C@@H](N)Cc1c[nH]cn1)[C@@H](C)O)[C@@H](C)O)C(C)C)C(=O)N[C@@H](CCCCNC(=O)COCCOCCNC(=O)COCCOCCNC(=O)CC[C@H](NC(=O)CCCCCCCCCCCCCCCCCCC(=O)O)C(=O)O)C(=O)N[C@@H](CCC(=O)O)C(=O)N[C@@H](CCC(=O)O)C(=O)N[C@@H](C)C(=O)NC(C)(C)C(=O)N[C@@H](CC(C)C)C(=O)N[C@@H](CCC(N)=O)C(=O)N[C@@H](CCCNC(=N)N)C(=O)N[C@@H](Cc1ccccc1)C(=O)N[C@@H](CC(C)C)C(=O)N[C@@H](CCC(=O)O)C(=O)N[C@@H](Cc1c[nH]cn1)C(=O)N[C@@H](CC(C)C)C(=O)N[C@H](C(N)=O)C(C)C` [compound 167] (H-H[Aib]EGTFTSDVSGLK([AEEA-AEEA-γGlu-C20 diacid])EEA[Aib]LQRFLEHLV-NH2): the EC50 was 100 nM at SCTR (setting [5]) and 0.00631 nM at GLP1R (setting [6]). Besides, at GLP1R, the “SCTR EC50/GLP1R EC50 ratio” value was found to be 16446. Also, the Fibril formation in data set [1] is recorded as 4018. Also, the “Turbidity (pH 7)” value in data set [2] worked out at 0.08.
Regarding `CC[C@H](C)[C@H](NC(=O)[C@H](Cc1ccccc1)NC(=O)[C@H](CCCNC(=N)N)NC(=O)[C@H](CCC(N)=O)NC(=O)[C@H](CC(C)C)NC(=O)[C@H](C)NC(=O)[C@H](C)NC(=O)CNC(=O)[C@H](CCC(=O)O)NC(=O)[C@H](CC(C)C)NC(=O)[C@H](CC(C)C)NC(=O)[C@H](Cc1ccc(O)cc1)NC(=O)[C@H](CO)NC(=O)[C@@H](NC(=O)[C@H](CC(=O)O)NC(=O)[C@H](CO)NC(=O)[C@@H](NC(=O)[C@H](Cc1ccccc1)NC(=O)[C@@H](NC(=O)CNC(=O)[C@H](CCC(=O)O)NC(=O)C(C)(C)NC(=O)[C@@H](N)Cc1c[nH]cn1)[C@@H](C)O)[C@@H](C)O)[C@@H](C)CC)C(=O)N[C@@H](CCC(N)=O)C(=O)N[C@@H](Cc1c[nH]c2ccccc12)C(=O)N[C@@H](CC(C)C)C(=O)N[C@H](C(N)=O)C(C)C` [compound 112] (H-H[Aib]EGTFTSDISYLLEGAALQRFIQWLV-NH2), the EC50 on SCTR (setting [5]) is 2510 nM; at GLP1R (setting [6]) it was 0.0158 nM. Besides, the “SCTR EC50/GLP1R EC50 ratio” value at GLP1R turned out to be 164097. This molecule had a Fibril formation in data set [1] of 93630. The “Turbidity (pH 7)” value in data set [2] is 0.29.
On to `CC(C)C[C@H](NC(=O)[C@H](Cc1ccccc1)NC(=O)[C@H](CCCNC(=N)N)NC(=O)[C@H](CCC(N)=O)NC(=O)C(C)(C)NC(=O)[C@H](C)NC(=O)[C@H](C)NC(=O)[C@H](CCC(=O)O)NC(=O)[C@H](CCC(=O)O)NC(=O)[C@H](CCCCNC(=O)COCCOCCNC(=O)COCCOCCNC(=O)CC[C@H](NC(=O)CCCCCCCCCCCCCCCCCCC(=O)O)C(=O)O)NC(=O)[C@H](CC(C)C)NC(=O)[C@H](CCC(=O)O)NC(=O)[C@H](CO)NC(=O)[C@@H](NC(=O)[C@H](CC(=O)O)NC(=O)[C@H](CO)NC(=O)[C@@H](NC(=O)[C@H](Cc1ccccc1)NC(=O)[C@@H](NC(=O)CNC(=O)[C@H](CCC(=O)O)NC(=O)C(C)(C)NC(=O)[C@@H](N)Cc1c[nH]cn1)[C@@H](C)O)[C@@H](C)O)C(C)C)C(=O)N[C@@H](CCC(=O)O)C(=O)N[C@@H](Cc1c[nH]cn1)C(=O)N[C@@H](CC(C)C)C(=O)N[C@H](C(N)=O)C(C)C` [compound 97] (H-H[Aib]EGTFTSDVSELK([AEEA-AEEA-γGlu-C20 diacid])EEAA[Aib]QRFLEHLV-NH2), for which the figures for the EC50 at SCTR (setting [5]) and on GLP1R (setting [6]) were 1580 nM and 0.01 nM, respectively. Moreover, on GLP1R, the “SCTR EC50/GLP1R EC50 ratio” value is given as 145949. This molecule came in with a Fibril formation in data set [1] of 10277. Also, the “Turbidity (pH 7)” value in data set [2] was 0.09.
